The IC50 is the point on the concentration scale where inhibition reaches its midpoint. Higher therefore signals weaker potency in that assay.

The source of these data is article PMC11494662, “Insight into the Course of the Ferrier Rearrangement Used to Obtain Untypical Diosgenyl Saponins” (The Journal of Organic Chemistry, 2024).

The structures appear in SMILES notation. ≈ marks a conversion by molar mass, not a printed value. A value given as a limit tells only on which side of the number the result lay.

Assay [1] has as its system prostate cancer cells (PC3 line). As to the kind of experiment: MTT cytotoxicity assay, PC3. In kind it is cell-based, human. The following applies: for IC50: Homo sapiens, PC-3, PC3 cells, 48 h treatment, MTT; for SI PC3 (selectivity index): ratio of IC50 for normal cell line (HaCaT) to IC50 for PC3, 48 h. The method, then:
(§1) The MTT assay was performed to specify the cytotoxicity of 7–12 and 13–18 against prostate cancer cells (PC3 line), breast cancer cells (MCF7 line), and human keratinocytes (HaCaT line). The mentioned cell lines were assayed by exposing them for 48 h to a medium containing the studied compounds over a wide range of concentrations. The IC50 values (dose of the compound which caused a 50% reduction of cell viability) and the selectivity indexes (SI), which show the ratio of IC50 for normal cell line to IC50 for cancer cell line, are shown in Table S2. An MTT assay was performed to specify the cytotoxicity of the studied compounds against breast cancer cells (MCF-7 line, ATCC), prostate cancer cells (PC3 line, ATCC) and human keratinocytes (HaCaT line, CLS). The MCF-7 cell line was cultured in an RPMI 1640 medium (Gibco, Thermo Fisher Scientific), the PC3 cell line in a F-12K medium (Gibco, Thermo Fisher Scientific), and the HaCaT cell line in a high-glucose DMEM (Gibco, Thermo Fisher Scientific). Each medium was supplemented with 10% fetal bovine serum (Gibco, Thermo Fisher Scientific) and antibiotics (penicillin and streptomycin, Gibco, Thermo Fisher Scientific). Cells were seeded at a density of 4000 per well into 96-well plates and incubated at 37 °C in a 5% CO2 atmosphere. The cells were treated with studied compounds in a concentration range of 0.1–100 μg/mL or with a vehicle (1% DMSO) as a control and subsequently incubated for 48 h. Thereafter, the MTT salt solution (3-(4,5-dimethylthiazol-2-yl)-2,5-diphenyltetrazolium bromide, VWR) was added at a concentration of 4 mg/mL (25 μL per well), and the obtained product (formazan) after 3 h of incubation was dissolved in DMSO. An EnSpire microplate reader (PerkinElmer) was used to measure absorbance at 570 nm (the reference wavelength was 660 nm). The viability of the control cells was taken as 100%. Three independent experiments were conducted in triplicate. Statistical analysis of the results and estimation of IC50 values were performed using GraphPad Prism 7 software.
(In general: Formazan colour is commonly taken as a measure of viable cells.)

The subject of assay [2] is breast cancer cells (MCF-7 line). As to the kind of experiment: MTT cytotoxicity assay, MCF7. In kind it is cell-based, human. As to conditions: for IC50: Homo sapiens, MCF7 cells, 48 h treatment, MTT; for SI MCF7 (selectivity index): ratio of IC50 for normal cell line (HaCaT) to IC50 for MCF7, 48 h. As to the method: as §1
Assay [3] deals with human keratinocytes (HaCaT line). As to the kind of experiment: MTT cytotoxicity assay, HaCaT. In kind it is cell-based. As to conditions: Homo sapiens, HaCaT normal cells, 48 h treatment. As to the method: as §1
The test system of the next assay is E. faecium ATCC 29212. Put plainly: MIC, broth dilution method. As to conditions: Enterococcus faecium, ATCC29212; MHB II, 18 h, 37 °C; read-out: Minimum inhibitory concentration E. faecium ATCC 29212. The format is cell-based. The method, then:
(§2) MIC was determined with the dilution method in Mueller–Hinton II broth (MHB II) on 96-well polystyrene plates. The reference strains (Polish Academy of Sciences, Wroclaw, Poland) of Gram-positive bacteria (Enterococcus faecium ATCC 29,212, S. aureus ATCC 6538, S. aureus ATCC 43,300, S. aureus ATCC 12,598, S. aureus ATCC 25,923, S. aureus, ATCC 33,591, Staphylococcus epidermidis ATCC 14,990) and Gram-negative bacteria (Acinetobacter baumanii ATCC 23,506, Escherichia coli ATCC 25,922, Klebsiella pneumoniae ATCC 700,603, Pseudomonas aeruginosa ATCC 9027) were suspended in MHB II medium to initial inoculum of 10^5 cfu/mL. The microbes were exposed to graded concentrations of tested compounds (range 0.5–256 mg/L) for 18 h at 37 °C under aerobic conditions. The compounds were dissolved in DMSO and then diluted with PBS. […] MIC was taken as the lowest concentration at which no microbial growth was observed. The experiments were performed in triplicate.
A general note: In broth dilution the organism is exposed to a series of concentrations in liquid medium.

The next assay concerns S. aureus ATCC 12598. Put plainly: MIC, broth dilution method. The following applies: Staphylococcus aureus, ATCC12598; MHB II, 18 h, 37 °C; read-out: Minimum inhibitory concentration S. aureus ATCC 12598. In kind it is cell-based. As to the method: as §2
A further assay has as its system S. aureus ATCC 25923. As to the kind of experiment: MIC, broth dilution method. The following applies: Staphylococcus aureus, ATCC25923; MHB II, 18 h, 37 °C; read-out: Minimum inhibitory concentration S. aureus ATCC 25923. The format is cell-based. The method, then:
as §2

A further assay deals with S. aureus ATCC 33591. As to the kind of experiment: MIC, broth dilution method. The format is cell-based. The following applies: Staphylococcus aureus, ATCC33591; MHB II, 18 h, 37 °C; read-out: Minimum inhibitory concentration S. aureus ATCC 33591. As to the method: as §2
The test system of the next assay is S. aureus ATCC 43300. Put plainly: MIC, broth dilution method. The following applies: Staphylococcus aureus, ATCC43300; MHB II, 18 h, 37 °C; read-out: Minimum inhibitory concentration S. aureus ATCC 43300. The format is cell-based. The method, then: as §2
A further assay concerns S. aureus ATCC 6538. As to the kind of experiment: MIC, broth dilution method. The following applies: Staphylococcus aureus, ATCC6538; MHB II, 18 h, 37 °C; read-out: Minimum inhibitory concentration S. aureus ATCC 6538. In kind it is cell-based. As to the method:
as §2

For assay [4], the system named is S. epidermidis ATCC 14990. Put plainly: MIC, broth dilution method. In kind it is cell-based. The following applies: Staphylococcus epidermidis, ATCC14990; MHB II, 18 h, 37 °C; read-out: Minimum inhibitory concentration S. epidermidis ATCC 14990. As to the method:
as §2

The test system of assay [5] is Staphylococcus aureus strains tested, including methicilin-resistant S. aureus. Put plainly: Antistaphylococcal activity, summary over the strains tested. In kind it is cell-based. The following applies: range over the S. aureus strains tested. The method, then:
as §2

For `C[C@@H]1CC[C@@]2(OC1)O[C@H]1C[C@H]3[C@@H]4CC=C5C[C@@H](O[C@@H]6CC[C@@H](O)[C@@H](CO)O6)CC[C@]5(C)[C@H]4CC[C@]3(C)[C@H]1[C@@H]2C` [14α, Diosgenyl 2,3-Dideoxy-α-D-threo-hexopyranoside], the IC50 was 41.1 µM in [1], 25 µM in assay [2] and 53.2 µM in [3]. In assay [1], the “SI PC3 (selectivity index)” value came to 1.29. The “SI MCF7 (selectivity index)” value in assay [2] is on record as 2.13. Besides, the MIC in the assay with E. faecium ATCC 29212 is over 256 µg/mL; in the assay on S. aureus ATCC 12598, 256 µg/mL (≈ 470 µM); with S. aureus ATCC 25923, 64 µg/mL (≈ 117 µM); in the assay on S. aureus ATCC 33591, 256 µg/mL (≈ 470 µM); in the assay on S. aureus ATCC 43300, 128 µg/mL (≈ 235 µM); in the assay on S. aureus ATCC 6538, 64 µg/mL (≈ 117 µM). The MIC in [4] was over 256 µg/mL. Also, the “concentrations at which antistaphylococcal activity was achieved” value in assay [5] was in the range of 64 to 256 mg/L.
`C[C@@H]1CC[C@@]2(OC1)O[C@H]1C[C@H]3[C@@H]4CC=C5C[C@@H](O[C@@H]6CC[C@H](O)CO6)CC[C@]5(C)[C@H]4CC[C@]3(C)[C@H]1[C@@H]2C` [17α]: the IC50 in assay [1] was 73.2 µM; in assay [2] it was 68.2 µM; in assay [3] it was 48.3 µM. Besides, the “SI PC3 (selectivity index)” value in assay [1] is 0.66. For the same compound, the “SI MCF7 (selectivity index)” value in assay [2] is 0.71. In addition, the MIC was over 256 µg/mL with E. faecium ATCC 29212; 256 µg/mL (≈ 497 µM) with S. aureus ATCC 12598; 256 µg/mL (≈ 497 µM) with S. aureus ATCC 25923; 256 µg/mL (≈ 497 µM) in the assay on S. aureus ATCC 33591; 128 µg/mL (≈ 249 µM) with S. aureus ATCC 43300; 128 µg/mL (≈ 249 µM) in the assay with S. aureus ATCC 6538. Moreover, the MIC in assay [4] was over 256 µg/mL. Also, in assay [5], the “concentrations at which antistaphylococcal activity was achieved” value was in the range of 128 to 256 mg/L.
For `C[C@@H]1CC[C@@]2(OC1)O[C@H]1C[C@H]3[C@@H]4CC=C5C[C@@H](O[C@@H]6C=C[C@H](O)[C@@H](CO)O6)CC[C@]5(C)[C@H]4CC[C@]3(C)[C@H]1[C@@H]2C` [7α, Diosgenyl 2,3-Dideoxy-α-D-erythro-Hex-2-enopyranoside], the IC50 in [1] was 16.8 µM; in [2] it was 56.1 µM; in [3], 20.2 µM. Moreover, the “SI PC3 (selectivity index)” value in assay [1] came out at 1.20. Further, the “SI MCF7 (selectivity index)” value in [2] is recorded as 0.36. Further, the MIC was 256 µg/mL (≈ 472 µM) with E. faecium ATCC 29212; over 256 µg/mL in the assay with S. aureus ATCC 12598; over 256 µg/mL in the assay on S. aureus ATCC 25923; over 256 µg/mL in the assay on S. aureus ATCC 33591; over 256 µg/mL in the assay on S. aureus ATCC 43300; 256 µg/mL (≈ 472 µM) in the assay on S. aureus ATCC 6538. Further, the MIC in assay [4] stood at 256 µg/mL (≈ 472 µM).
`C[C@@H]1CC[C@@]2(OC1)O[C@H]1C[C@H]3[C@@H]4CC=C5C[C@@H](O[C@@H]6C=C[C@@H](O)[C@@H](CO)O6)CC[C@]5(C)[C@H]4CC[C@]3(C)[C@H]1[C@@H]2C` [8α, Diosgenyl 2,3-Dideoxy-α-D-threo-hex-2-enopyranoside]: the IC50 in [1] came to 21.4 µM; in assay [2] it was 44.9 µM; in [3] it was 22.2 µM. Further, the “SI PC3 (selectivity index)” value in assay [1] stood at 1.04. The “SI MCF7 (selectivity index)” value in assay [2] is listed as 0.49. The MIC in the assay with E. faecium ATCC 29212, in the assay with S. aureus ATCC 12598, with S. aureus ATCC 25923, with S. aureus ATCC 33591, with S. aureus ATCC 43300 and in the assay with S. aureus ATCC 6538 was over 256 µg/mL each time. Besides, in assay [4], the MIC was over 256 µg/mL.
In the case of `C[C@@H]1CC[C@@]2(OC1)O[C@H]1C[C@H]3[C@@H]4CC=C5C[C@@H](O[C@@H]6C=C[C@@H](O)CO6)CC[C@]5(C)[C@H]4CC[C@]3(C)[C@H]1[C@@H]2C` [12β], the IC50 came to 27.9 µM in assay [1], 35.6 µM in assay [2] and 57.9 µM in [3]. The “SI MCF7 (selectivity index)” value is “ca. 2” in [2] and 1.62 in [2] (listed as 12). The MIC with E. faecium ATCC 29212 is over 256 µg/mL; with S. aureus ATCC 12598, over 256 µg/mL; in the assay on S. aureus ATCC 25923, over 256 µg/mL; in the assay with S. aureus ATCC 33591, over 256 µg/mL; in the assay with S. aureus ATCC 43300, over 256 µg/mL; in the assay with S. aureus ATCC 6538, 256 µg/mL (≈ 499 µM). Moreover, the MIC in [4] was over 256 µg/mL.
On to `C[C@@H]1CC[C@@]2(OC1)O[C@H]1C[C@H]3[C@@H]4CC=C5C[C@@H](OC6CC[C@H](O)CO6)CC[C@]5(C)[C@H]4CC[C@]3(C)[C@H]1[C@@H]2C` (stereo partly drawn) [17β], for which the figures for the IC50 in [1], in [2] and in assay [3] were 23.2 µM, 26.3 µM and 33.9 µM, respectively. Further, the “SI PC3 (selectivity index)” value in assay [1] is 1.46. Besides, the “SI MCF7 (selectivity index)” value in [2] amounted to 1.29. The MIC was over 256 µg/mL in the assay on E. faecium ATCC 29212; over 256 µg/mL with S. aureus ATCC 12598; over 256 µg/mL in the assay on S. aureus ATCC 25923; over 256 µg/mL in the assay with S. aureus ATCC 33591; over 256 µg/mL in the assay with S. aureus ATCC 43300; 256 µg/mL (≈ 497 µM) in the assay with S. aureus ATCC 6538. The MIC in assay [4] was over 256 µg/mL.
